Assay results reported in patent US20160168118A1, “N-(5-QUINOLIN-6-YL)PYRIDIN-3-YL) BENZSULFAMIDE DERIVATIVES, PREPARATION METHOD AND THERAPEUTIC USE THEREOF” (SECOND MILITARY MEDICAL UNIVERSITY, PLA, priority 2012, published 2016).
Like-named read-outs stand apart in the source and are kept apart here.

Test: In vivo pharmacokinetics in SD rats
Conditions: for AUC(0-t): read-out: AUC(0-24); for half-life / bioavailability: rat, plasma; for bioavailability: oral, rats, intragastric 20 mg/kg vs iv 2 mg/kg
Method: SD rats, male, 4-6 weeks old, weighing 200-220 g, the total number is 12, were purchased from Shanghai Slac laboratory animal limited liability company, animal production license number: SCXK (Shanghai) 2008-0016, the experimental animals using license number: SCXK (Shanghai) 2007-0005, certificate number: 2007000514232.
SD rats were randomly divided into two groups, numbered A and B, while 6 rats in each group, before the experiment starts, the rats were fasted 12 hours overnight, group A were tail vein injected with compound 9 by dose 2 mg/kg; group B were intragastric administrated with Compound 9 suspensions, of which the dose was calculated as 20 mg/kg;
Group A: tail intravenous injection (i.v.) administrated compound 9. Orbital blood 0.3 mL was taken on 0, 5, 10, 15, 30, 45, 60 min, 2 h, 3 h, 4 h, 6 h, 8 h, 12 h, and was placed in 1.5 mL EP tube coated with heparin, shaked up and down for 3 times, centrifuged at 3500 rpm for 5 min to get supernatant, and was kept in refrigerator at −20° C. to save backup;
Dose was 2 mg/kg (2.6 mL/kg), administered in a concentration of 770 μg/mL, which was dissolved with mixed aqueous solution of 9.4% ethanol and 24.5% isopropanol;
Group B: intragastric administration (i.g.), dose of 20 mg/kg, administered in a concentration of 1.5 mg/mL, and 3.75% Tween 80 was used to dissolve compound 9, gavage dose was (13.3 mL/kg);
Orbital blood 0.5 mL was taken at 0, 5, 10, 15, 30, 45, 60 min, 2 h, 3 h, 4 h, 6 h, 8 h, 12 h, 24 h, and was placed in 1.5 mL EP tube coated with heparin, shaked up and down for 3 times, centrifuged at 3500 rpm for 5 min to get supernatant, and kept in refrigerator at −20° C. to save backup.
Plasma sample 100 μL was precisely measured, put in 1.5 mL plastic centrifuge tube, 10 μL methanol and 190 μL methanol solution of compound 17 (internal standard) of 100.8 ng·mL^−1 were added, vortex mixed for 30 s, centrifuged at 12000r·min^−1 for 10 min, 200 μL supernatant was taken and put into the vial, 5 μL injected for HPLC-MS analysis.
Analytical conditions: column: SHISEIDO MG-C18 (100 mm×3.0 mm, 3.0 μm), mobile phase: acetonitrile: water (containing 0.1% formic acid=25:75 (V/V); flow rate: 0.8 mL·min^−1 analysis time 6 min, column temperature: 25° C., the injection volume: 5 μL, split ratio 2:1. The mass was in ESI source positive ion mode, the capillary voltage was 4000V, drying flow rate was 10 L/min, the atomizing air pressure was 40 psi, temperature of the drying gas was 350° C. Selective ion mode (SIM), the ion of compound 9 was [M+H] ions+m/z 561.2 and that of the internal standard compound 17 [M+H]+m/z 591.2, and the debris voltage was 70 eV.
The data gained were substituted into the accompanying standard curve, thus obtaining the drug concentration in rat plasma.
The pharmacokinetic parameters were analyzed by using non-compartmental model, the peak concentration Cmax and peak time Tmax were taken Found value, and the pharmacokinetic parameters were processed to obtain the pharmacokinetic parameters result of single dose.

[1] = male, SD, iv, rat plasma, tail vein injection, 2 mg/kg
[2] = male, SD, po, rat plasma, intragastric administration, 20 mg/kg
[3] = rat plasma, intragastric administration, 20 mg/kg
[4] = rat plasma, tail vein injection, 2 mg/kg

- AUC [1]: 3740 ng·h/mL
- Cmax [1]: 999 ng/mL
- MRT [1]: 8.54 h
- Vd [1]: 5.05 L/kg
- clearance [1]: 8.92 mL/min/kg
- AUC(0-t) [1]: 3450 ng·h/mL
- AUC [2]: 35600 ng·h/mL
- Cmax [2]: 7120 ng/mL
- MRT [2]: 6.46 h
- Tmax [2]: 0.5 h
- AUC(0-t) [2]: 34100 ng·h/mL
- half-life (male, SD, iv, 2 mg/kg, rat plasma, tail vein injection): 6.55 h
- bioavailability (male, SD, 20 mg/kg, read-out: Absolute bioavailability F0-t): 98.8%
- bioavailability (male, SD, 20 mg/kg, read-out: Absolute bioavailability F0-∞): 95.2%
- half-life (male, SD, po, 20 mg/kg, rat plasma, intragastric administration): 4.4 h
- AUMC [3]: 230.2 μg/mL · h
- AUMC(0-24) [3]: 183.0 μg/mL · h
- k [3]: 0.1573 h⁻¹
- t1/2 [3]: 4.406 h
- AUMC [4]: 31.95 μg/mL · h
- AUMC(0-24) [4]: 22.23 μg/mL · h
- k [4]: 0.1063 h⁻¹
SMILES: COc1ncc(-c2ccc3nccc(-c4ccc(CN(C)C)cc4)c3c2)cc1NS(=O)(=O)c1ccc(F)cc1F [Compound 9, N-(5-(4-(4-((dimethylamine)methyl)phenyl)quinolin-6-yl)-2-methoxypyridine-3-yl)-2,4-difluorobenzenesulfonamide]
